Results: US20210113640A1, “COMPOSITION FOR PROMOTING HAIR GROWTH OR PREVENTING HAIR LOSS CONTAINING EXTRACT OF ASTER AGERATOIDES” (KOREA INSTITUTE OF SCIENCE AND TECHNOLOGY, priority 2019, published 2021)

How the values were obtained:
[1] = tested on: lipid peroxide production in liver homogenate; assay: Inhibition of lipid peroxide formation in rat liver homogenate (TBA method); type: biochemical, Sprague-Dawley rats; conditions: positive controls, FeSO4/ascorbic acid, 37° C., 30 minutes, mean ± standard error, read-out: Lipid peroxide production inhibitory activity IC50
Method: Lipid peroxide is a substance produced by peroxidation of lipids through various oxidation reactions. Reactive oxygen species, free radicals and the like oxidize phospholipids of cell membranes containing great amounts of unsaturated fatty acids, producing lipid peroxides in the cell membranes. […] The animals used in the experiment were male Sprague-Dawley rats, and only water was supplied for 24 hours before the experiment.

[2] = tested on: hair growth in C57BL/6 mice skin tissue; assay: Induction of hair growth phase in depilated C57BL/6 mice (topical, 30 days); type: in vivo; conditions: applied once a day for 30 days
Method: 6-week-old C57BL/6 female mice with white or pink back skin were used as experimental animals and the experiment was conducted according to guidelines for the management and use of laboratory animals approved by the Animal Research Ethics Committee of the Korea Institute of Science and Technology (approval number: […]-2018-081). […] The back hairs of the mice were depilated using an electric shaver and a test substance was applied to the depilated area once a day for 30 days. […] 30 days after treatment with the sample, the hairs were randomly collected, the thickness and length of the hairs were measured, and the results are shown in FIG. 3 and Table 1. On the last day of application of the test substance, the mice were sacrificed to obtain skin tissues, and then tissues were fixed with paraffin and then prepared into tissue slices. These were stained with hematoxylin and eosin (H&E) and observed under a microscope (100×), and the results are shown in FIG. 4.

[3] = A. ageratoides 1%, minoxidil 3%

`Cc1c(C)c2c(c(C)c1O)CCC(C)(C(=O)O)O2` (centres unmarked) [Trolox] gave an IC50 [1] greater than 100 µM.

With `Nc1cc(N2CCCCC2)nc(N)[n+]1[O-]` [Minoxidil, minoxidil] the hair thickness ([2]; 1% Aster ageratoides extract, 3% minoxidil) was 53.19±4.04 μm, the Hair length [2, 3] was 6-9 mm and the Hair width [2, 3] was 53.2 ± 4.04 µm. It also gave a Hair length ([2]; A. ageratoides 1%, minoxidil 3%, listed as positive control) of 6 to 9 mm.
